The source of these data is patent publication US7618975B2, “4-arylamino-quinazolines and analogs as activators of caspases and inducers of apoptosis and the use thereof” (Myriad Pharmaceuticals, Inc., priority 2003, dated 2009).

In the test the test system is T-47D cells. Kind of test: Caspase cascade activation (N-(Ac-DEVD)-N′-ethoxycarbonyl-R110 fluorogenic substrate) in T-47D cells. On Caspase activity Ratio T-47D (24 hr): test concentration or dose not given here. On Caspase activity Ratio T-47D (48 hr): test concentration or dose not given here. The test is classed as cell-based, Human. Particulars: T-47D; for Caspase activity Ratio T-47D (24 hr) / Caspase activity Ratio T-47D (48 hr): ratio of net RFU to control; for Ratio T-47D (48 hr): benzohydrazide analogs table.

For `COc1ccc(N(C)c2nc(C)nc3ccc([N+](=O)[O-])cc23)cc1` [Example 109, (4-Methoxy-phenyl)-(2-methyl-6-nitro-quinazolin-4-yl)-methyl-amine], the “Caspase activity Ratio T-47D (24 hr)” value was determined as 4.6. For `Cc1nc(N(C)c2ccc(OC(F)F)cc2)c2ccccc2n1` [Example 84, (4-Difluoromethoxy-phenyl)-(2-methyl-quinazolin-4-yl)-methyl-amine], the “Caspase activity Ratio T-47D (24 hr)” value is 6.7. In the case of `CCCOc1ccc(N(C)c2nc(Cl)nc3ccccc23)cc1` [Example 70, (2-Chloro-quinazolin-4-yl)-(4-propoxy-phenyl)-methyl-amine], the “Caspase activity Ratio T-47D (48 hr)” value was determined as 11.3. Consider `COc1ccc(N(C)c2nc(NO)nc3ccccc23)cc1` [Example 10, N^2-Hydroxyl-N^4-(4-methoxy-phenyl)-N^4-methyl-quinazoline-2,4-diamine], for which the “Caspase activity Ratio T-47D (48 hr)” value was 12.8. In the case of `Cc1nc(N(C)c2ccc(OC(C)C)cc2)c2ccccc2n1` [Example 86, (4-Isopropoxy-phenyl)-(2-methyl-quinazolin-4-yl)-methyl-amine], the “Caspase activity Ratio T-47D (24 hr)” value came out at 6.2. Consider `CSc1nc(N(C)NC(=O)c2cccc(C)c2)c2ccccc2n1` [N′,3-dimethyl-N′-(2-(methylthio)quinazolin-4-yl)benzohydrazide], for which the “Ratio T-47D (48 hr)” value is on record as 12.7. In the case of `COc1cnc(N(C)c2nc(C)nc3ccccc23)cn1` [Example 126, (5-Methoxy-pyrazin-2-yl)-(2-methyl-quinazolin-4-yl)-methyl-amine], the “Caspase activity Ratio T-47D (24 hr)” value was determined as 7.6.

On to `COC(=O)c1ccc(N(C)c2nc(Cl)nc3ccccc23)cc1` [Example 52, (2-Chloro-quinazolin-4-yl)-(4-methylcarboxyphenyl)-methyl-amine], for which the “Caspase activity Ratio T-47D (48 hr)” value is given as 10.8.

As for `CN(NC(=O)c1ccccc1F)c1nc(C(F)(F)F)nc2ccccc12` [2-fluoro-N′-(2-(trifluoromethyl)quinazolin-4-yl)-N′-methylbenzohydrazide], the “Ratio T-47D (48 hr)” value worked out at 13.7. `COc1ccc(N(C)c2nc(Cl)nc3c(C)cccc23)cc1` [Example 59, (2-Chloro-8-methyl-quinazolin-4-yl)-(4-methoxy-phenyl)-methyl-amine]: the “Caspase activity Ratio T-47D (48 hr)” value stood at 7.1.

As for `COc1ccc(Nc2nc(Cl)nc3cc(OC)c(OC)cc23)cc1` [Example 21, (2-Chloro-6,7-dimethoxyquinazolin-4-yl)-(4-methoxy-phenyl)-amine], the “Caspase activity Ratio T-47D (24 hr)” value is 1.0 and the “Caspase activity Ratio T-47D (48 hr)” value is reported as 1.0. Take `COc1ccc(N(c2nc(Cl)nc3ccccc23)C2CCCC2)cc1` [Example 45, (2-Chloro-quinazolin-4-yl)-cyclopentyl-(4-methoxy-phenyl)-amine]: the “Caspase activity Ratio T-47D (48 hr)” value is recorded as 1.0. Take `COc1ccc2c(ccn2-c2nc(Cl)nc3ccccc23)c1` [Example 9, 2-Chloro-4-(5-methoxyindol-1-yl)quinazoline]: the “Caspase activity Ratio T-47D (48 hr)” value amounted to 1.8. As for `Cc1nc(N(C)c2ccc(N(C)C)cc2)c2ccccc2n1` [Example 105, (4-Dimethylamino-phenyl)-(2-methyl-quinazolin-4-yl)-methyl-amine], the “Caspase activity Ratio T-47D (24 hr)” value stood at 8.5.

In the case of `COc1ccc(N(C)c2nc(Cl)nc3cccc(Cl)c23)cc1` [Example 90, (2,5-Dichloro-quinazolin-4-yl)-(4-methoxy-phenyl)-methyl-amine], the “Caspase activity Ratio T-47D (24 hr)” value stood at 10.6.

Turning to `COc1ccc(N(C)c2nc(NCCc3c[nH]cn3)nc3ccccc23)cc1` [Example 46, N^2-[2-(1H-Imidazol-4-yl)-ethyl]-N^4-(4-methoxy-phenyl)-N^4-methyl-quinazoline-2,4-diamine], the “Caspase activity Ratio T-47D (24 hr)” value is reported as 12.8 and the “Caspase activity Ratio T-47D (48 hr)” value was found to be 9.4. On to `CSc1nc(N(C)NC(=O)c2cccs2)c2ccccc2n1` [N′-methyl-N′-(2-(methylthio)quinazolin-4-yl)thiophene-2-carbohydrazide], for which the “Ratio T-47D (48 hr)” value was found to be 10.1. For the compound `COc1ccc(N(C)c2nc(C)nc3ccccc23)nc1` [Example 138, (5-Methoxy-pyridin-2-yl)-(2-methyl-quinazolin-4-yl)-methyl-amine], the “Caspase activity Ratio T-47D (24 hr)” value was determined as 5.0. In the case of `Cc1nc(N(C)c2ccc(N=[N+]=[N-])cc2)c2ccccc2n1` [Example 102, (4-Azido-phenyl)-(2-methyl-quinazolin-4-yl)-methyl-amine], the “Caspase activity Ratio T-47D (24 hr)” value amounted to 8.8 and the “Caspase activity Ratio T-47D (48 hr)” value came out at 11.3. On to `COc1ccc(N(C)c2nc(OC(C)C)nc3cccc(Cl)c23)cc1` [Example 64, (5-Chloro-2-isopropoxy-quinazolin-4-yl)-(4-methoxy-phenyl)-methyl-amine], for which the “Caspase activity Ratio T-47D (48 hr)” value turned out to be 1. Regarding `COc1ccc(N(C)c2nc(N)nc3[nH]cnc23)cc1` [Example 17, N^6-(4-Methoxy-phenyl)-N-6-methyl-9H-purine-2,6-diamine], the “Caspase activity Ratio T-47D (24 hr)” value stood at 3.0.

As for `COc1ccccc1Nc1nc(Cl)nc2ccccc12` [Example 33, (2-Chloro-quinazolin-4-yl)-(2-methoxy-phenyl)-amine], the “Caspase activity Ratio T-47D (48 hr)” value is given as 1.0. Consider `Clc1nc(Nc2ccncc2)c2ccccc2n1` [Example 27, (2-Chloro-quinazolin-4-yl)-pyridin-4-yl-amine], for which the “Caspase activity Ratio T-47D (48 hr)” value came out at 1.0. As for `COc1ccc(N(c2nc(Cl)nc3ccccc23)C(C)C)cc1` [Example 37, (2-Chloro-quinazolin-4-yl)-isopropyl-(4-methoxy-phenyl)-amine], the “Caspase activity Ratio T-47D (24 hr)” value is on record as 3.3. Still for that read-out and setting: next, `COc1ccc(N(C)c2nc(C)nc3cc(N)ccc23)cc1` [Example 113, (7-Amino-2-methyl-quinazolin-4-yl)-(4-methoxy-phenyl)-methyl-amine]: 3.7. `COc1ccc(N(C)c2nc(-c3ccccc3)nc3ccccc23)cc1` [Example 83, (4-Methoxy-phenyl)-(2-phenyl-quinazolin-4-yl)-methyl-amine]: the “Caspase activity Ratio T-47D (48 hr)” value worked out at 10.8.

On to `Cc1nc(N(C)c2c(Br)cc(N)cc2Br)c2ccccc2n1` [Example 103, (4-Amino-2,6-dibromo-phenyl)-(2-methyl-quinazolin-4-yl)-methyl-amine], for which the “Caspase activity Ratio T-47D (24 hr)” value was 9.3. With `COc1cc(OC)c(N(C)c2nc(C)nc3ccccc23)c(OC)c1` [Example 88, (2-Methyl-quinazolin-4-yl)-(2,4,6-trimethoxy-phenyl)-methyl-amine], the “Caspase activity Ratio T-47D (24 hr)” value is given as 7.6. On to `COc1ccc(N(C)c2nc(N(C)C)nc3ccccc23)cc1` [Example 122, (2-Dimethylamino-quinazolin-4-yl)-(4-methoxy-phenyl)-methyl-amine], for which the “Caspase activity Ratio T-47D (24 hr)” value turned out to be 8.2. With `COc1ccc(Nc2nc(C)nc3ccccc23)c(F)c1` [Example 96, (2-Fluoro-4-methoxy-phenyl)-(2-methyl-quinazolin-4-yl)-amine], the “Caspase activity Ratio T-47D (24 hr)” value is given as 1.0.

With `Cc1nc(Nc2ccc(OC(F)F)cc2)c2ccccc2n1` [Example 78, (4-Difluoromethoxy-phenyl)-(2-methyl-quinazolin-4-yl)-amine], the “Caspase activity Ratio T-47D (24 hr)” value is given as 0.6. With `COc1cccc(Nc2nc(Cl)nc3ccccc23)c1OC` [Example 29, (2-Chloro-quinazolin-4-yl)-(2,3-dimethoxy-phenyl)-amine], the “Caspase activity Ratio T-47D (48 hr)” value is 1.0. Consider `CN(c1ccc(O)cc1)c1nc(Cl)nc2ccccc12` [Example 54, (2-Chloro-quinazolin-4-yl)-(4-hydroxyphenyl)-methylamine], for which the “Caspase activity Ratio T-47D (48 hr)” value amounted to 12.5. `COc1ccc(N(C)c2nc(Cl)nc3cc(Cl)ccc23)cc1` [Example 62, (2,7-Dichloro-quinazolin-4-yl)-(4-methoxy-phenyl)-methyl-amine]: the “Caspase activity Ratio T-47D (48 hr)” value is on record as 12.7. Take `Cc1nc(Nc2ccc(O)cc2)c2ccccc2n1` [Example 127, (4-hydroxy-phenyl)-(2-methyl-quinazolin-4-yl)-amine]: the “Caspase activity Ratio T-47D (24 hr)” value was 1.2. On to `CCc1ccc(N(C)c2nc(C)nc3ccccc23)cc1` [Example 87, (4-Ethyl-phenyl)-(2-methyl-quinazolin-4-yl)-methyl-amine], for which the “Caspase activity Ratio T-47D (24 hr)” value is on record as 6.3. On to `Cc1nc(N(C)c2ccc([N+](=O)[O-])cc2)c2ccccc2n1` [Example 100, (2-Methyl-quinazolin-4-yl)-(4-nitro-phenyl)-methyl-amine], for which the “Caspase activity Ratio T-47D (24 hr)” value is given as 8.9.

As for `COc1ccc(CN(C)c2nc(Cl)nc3ccccc23)cc1` [Example 26, (2-Chloro-quinazolin-4-yl)-(4-methoxy-benzyl)-methyl-amine], the “Caspase activity Ratio T-47D (48 hr)” value worked out at 15.7. As to `COc1ccc(N(C)c2nc(N(C)C)nc3ccccc23)cn1` [Example 128, (2-Dimethylamino-quinazolin-4-yl)-(6-methoxy-pyridin-3-yl)-methyl-amine], the “Caspase activity Ratio T-47D (24 hr)” value came to 10. Turning to `COc1ccc(N(C)c2nc(C)nc3nccnc23)cc1` [Example 140, (4-Methoxy-phenyl)-(2-methyl-pteridin-4-yl)-methyl-amine], the “Caspase activity Ratio T-47D (24 hr)” value is listed as 7.0. For `COc1ccc(N(c2nc(Cl)nc3ccccc23)C2CCCCC2)cc1` [Example 38, (2-Chloro-quinazolin-4-yl)-cyclohexyl-(4-methoxy-phenyl)-amine], the “Caspase activity Ratio T-47D (24 hr)” value is 3.4.

Turning to `Cc1nc(Nc2ccc(OC(C)C)cc2)c2ccccc2n1` [Example 80, (4-Isopropoxy-phenyl)-(2-methyl-quinazolin-4-yl)-amine], the “Caspase activity Ratio T-47D (24 hr)” value worked out at 8.3. As to `COc1ccc(N(C)c2nc(C)nc3cccc(OC)c23)cc1` [Example 91, (5-Methoxy-2-methyl-quinazolin-4-yl)-(4-methoxy-phenyl)-methyl-amine], the “Caspase activity Ratio T-47D (24 hr)” value is reported as 8.3. With `COc1ccc(N(C)c2nc(C)nc3ccccc23)cc1F` [Example 85, (3-Fluoro-4-methoxy-phenyl)-(2-methyl-quinazolin-4-yl)-methyl-amine], the “Caspase activity Ratio T-47D (24 hr)” value was 7.6. In the case of `COc1cnc(Nc2nc(C)nc3ccccc23)nc1` [Example 141, (5-Methoxy-pyrimidin-2-yl)-(2-methyl-quinazolin-4-yl)-amine], the “Caspase activity Ratio T-47D (24 hr)” value is recorded as 1.2.
